Measurements: patent US4588740A, “Pharmaceutical methods using 4-aminoalkyl-2(3H)-indolones” (priority 1983, dated 1986)

Experiments:
D2 -receptors = molecular target: T1, D2 -receptors (Oryctolagus cuniculus, UniProt G1T1Q0); assay: perfused rabbit ear artery test
T1 construct: In the perfused rabbit ear artery test; from tissue; host or cells: perfused rabbit ear artery (receptors on sympathetic nerve terminals)

cardio-accelerator nerve = cardio-accelerator nerve preparation in vivo in the dog
perfused hind limb = perfused hind limb preparation in vivo in the dog
[1] = tested on: DOCA-salt hypertensive rats; assay: intravenous infusion in DOCA-salt hypertensive rats; format: in vivo, rat
From the text: (§1) Intravenous infusion of this species of this invention in the DOCA-salt hypertensive and spontaneously hypertensive rats reduced blood pressure and heart rate.

[2] = tested on: spontaneously hypertensive rats; assay: intravenous infusion in spontaneously hypertensive rats; format: in vivo, rat
From the text: as §1

[3] = tested on: conscious DOCA salt hypertensive rats; assay: oral dosing in conscious DOCA salt hypertensive rats; format: in vivo, rat; conditions: oral doses of 10 mg/kg
[4] = absorption from the gastrointestinal tract of rats; format: in vivo, rat; conditions: oral, compared with the 7-hydroxy congener
[5] = tested on: presynaptic α-dopaminergic receptors (D2 -receptors); assay: D2-agonist selectivity (general statement); conditions: peripheral
From the text: Otherwise speaking, the main focus of action is at the presynaptic α-dopaminergic receptors which may also be called "D2 -receptors." Activation of the D2 -receptors on the sympathetic nerve terminals inhibits the release of norepinephrine, thereby, promoting vasodilation, among other beneficial cardiovascular actions and decreasing sympathetic side-effects caused by norepinephrine release in certain abnormal cardiovascular conditions.

T1 sequence (G1T1Q0 1-443): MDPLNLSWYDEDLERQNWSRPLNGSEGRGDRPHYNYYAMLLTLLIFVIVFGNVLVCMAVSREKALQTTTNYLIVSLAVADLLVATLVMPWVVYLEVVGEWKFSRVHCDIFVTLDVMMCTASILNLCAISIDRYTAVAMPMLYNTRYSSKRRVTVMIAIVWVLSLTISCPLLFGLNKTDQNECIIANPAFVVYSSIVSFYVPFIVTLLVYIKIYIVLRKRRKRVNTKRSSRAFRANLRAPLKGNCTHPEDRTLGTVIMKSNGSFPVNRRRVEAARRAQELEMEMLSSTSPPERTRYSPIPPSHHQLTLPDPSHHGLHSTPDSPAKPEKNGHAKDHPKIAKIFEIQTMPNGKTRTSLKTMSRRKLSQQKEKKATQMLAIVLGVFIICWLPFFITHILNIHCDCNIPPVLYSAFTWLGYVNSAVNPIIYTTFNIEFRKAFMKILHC

## CCCN(CCC)CCc1cccc2c1CC(=O)N2.Cl [4-(2-di-n-propylaminoethyl)-2(3H)-indolone hydrochloride]
D2 -receptors
  EC50: 72 nM
cardio-accelerator nerve
  activity in vivo: active
Perfused hind limb
  activity in vivo: active
  tachyphylaxis: did not cause tachyphylaxis
[1]
  blood pressure: reduced
  heart rate: reduced
[2]
  blood pressure: reduced
  heart rate: reduced
[3]
  anti-hypertensive effect: demonstrated an anti-hypertensive effect
[4]
  absorption from the gastrointestinal tract: more readily absorbed
[5]
  D2-agonist selectivity: selective peripheral D2 -agonists
